Measured values taken from patent EP1117659B1, “SUBSTITUTED 3-CYANOQUINOLINES AS PROTEIN TYROSINE KINASES INHIBITORS” (Wyeth Holdings Corporation, priority 1998, dated 2000).
pIC50: −log10 of the molar value. In brackets after ≈: the same amount, converted by molar mass. Several values for one entry are separate records, joined by “and”; a condition that tells them apart may be missing. Equal entries are not always repeated. Where two headings read alike, the source gives them in different places.

How the values were obtained:
[1] = molecular target: Epithelial Cell Kinase (ECK) (Homo sapiens, UniProt P29317); assay: Inhibition of Epithelial Cell Kinase (ECK), immobilized biotinylated peptide, HRP anti-phosphotyrosine readout; type: biochemical; settings: IC50, substrate phosphorylation
Chain of Epithelial Cell Kinase (ECK) (P29317 24-976, species assumed): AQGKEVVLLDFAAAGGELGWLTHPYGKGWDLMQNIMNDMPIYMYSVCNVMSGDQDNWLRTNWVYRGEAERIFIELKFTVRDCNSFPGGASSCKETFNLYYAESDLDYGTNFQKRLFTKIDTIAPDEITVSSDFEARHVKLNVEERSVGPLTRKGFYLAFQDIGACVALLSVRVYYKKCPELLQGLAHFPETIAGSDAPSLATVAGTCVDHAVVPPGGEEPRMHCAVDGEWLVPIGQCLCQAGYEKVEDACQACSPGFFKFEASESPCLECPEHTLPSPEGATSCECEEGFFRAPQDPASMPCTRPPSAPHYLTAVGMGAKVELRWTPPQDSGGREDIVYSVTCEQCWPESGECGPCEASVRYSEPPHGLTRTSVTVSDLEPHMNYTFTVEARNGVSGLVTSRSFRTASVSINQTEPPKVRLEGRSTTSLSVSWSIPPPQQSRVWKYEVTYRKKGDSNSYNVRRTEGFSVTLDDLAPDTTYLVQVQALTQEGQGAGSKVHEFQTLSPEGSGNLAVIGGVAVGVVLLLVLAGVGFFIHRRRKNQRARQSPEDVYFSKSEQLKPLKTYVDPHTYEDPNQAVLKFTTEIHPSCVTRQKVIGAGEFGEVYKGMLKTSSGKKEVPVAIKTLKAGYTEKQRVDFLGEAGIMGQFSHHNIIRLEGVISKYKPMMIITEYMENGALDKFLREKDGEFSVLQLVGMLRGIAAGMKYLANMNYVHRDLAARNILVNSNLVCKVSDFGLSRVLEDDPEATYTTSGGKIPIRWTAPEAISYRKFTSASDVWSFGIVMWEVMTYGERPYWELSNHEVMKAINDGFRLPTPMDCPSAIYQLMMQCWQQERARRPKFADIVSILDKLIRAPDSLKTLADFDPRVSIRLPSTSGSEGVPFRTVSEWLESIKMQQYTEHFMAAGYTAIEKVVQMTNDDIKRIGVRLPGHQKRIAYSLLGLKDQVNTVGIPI
Protocol: In this standard pharmacological test procedure, a biotinylated peptide substrate is first immobilized on neutravidin-coated microtiter plates. The test drug, the Epithelial Cell Kinase (ECK), Mg^++, sodium vanadate (a protein tyrosine phosphatase inhibitor), and an appropriate buffer to maintain pH (7.2) are then added to the immobilized substrate-containing microtiter wells. ATP is then added to initiate phosphorylation. After incubation, the assay plates are washed with a suitable buffer leaving behind phosphorylated peptide which is exposed to horse radish peroxidase (HRP)-conjugated anti-phosphotyrosine monoclonal antibody. The antibody-treated plates are washed again and the HRP activity in individual wells is quantified as a reflection of degree of substrate phosphorylation. […] Multiple entries for a given compound indication it was tested multiple times.

[2] = molecular target: T1, Kinase insert Domain containing Receptor (KDR: the catalytic domain of the VEGF receptor) (Homo sapiens, UniProt P35968); assay: Inhibition of Kinase insert Domain containing Receptor (KDR), radioactive phosphorylation of Glu:Tyr copolymer; type: biochemical; settings: IC50, substrate phosphorylation
T1 construct: KDR: the catalytic domain of the VEGF receptor
T1 sequence (P35968 834-1162 limits assumed): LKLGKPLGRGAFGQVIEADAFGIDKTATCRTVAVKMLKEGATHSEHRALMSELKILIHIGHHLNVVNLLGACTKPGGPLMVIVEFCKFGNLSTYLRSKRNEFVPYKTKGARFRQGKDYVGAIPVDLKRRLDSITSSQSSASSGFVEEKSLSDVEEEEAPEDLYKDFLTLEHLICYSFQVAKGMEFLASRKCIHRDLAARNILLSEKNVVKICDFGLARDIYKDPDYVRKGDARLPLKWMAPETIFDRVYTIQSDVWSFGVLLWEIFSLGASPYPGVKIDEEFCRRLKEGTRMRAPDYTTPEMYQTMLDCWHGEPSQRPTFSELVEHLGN
Protocol: In this standard pharmacological test procedure, KDR protein is mixed, in the presence or absence of a inhibitor compound, with a substrate peptide to be phosphorylated (a copolymer of glutamic acid and tyrosine, E:Y :: 4:1) and other cofactors such as Mg^++ and sodium vanadate (a protein tyrosine phosphatase inhibitor) in an appropriate buffer to maintain pH (7.2). ATP and a radioactive tracer (either P^32- or P^33- labeled ATP) is then add to initiate phosphorylation. After incubation, the radioactive phosphate associated with the acid-insoluble fraction of the assay mixture is then quantified as reflection of substrate phosphorylation. […] Multiple entries for a given compound indication it was tested multiple times.

[3] = molecular target: Recombinant human MEK 1 (MAPKK) / recombinant human ERK2 (MAPK) (Mek-Erk) (Homo sapiens, UniProt P28482+Q02750); assay: Mitogen Activated Protein Kinase (MAPK) assay, two component coupled Mek-Erk test; type: biochemical; settings: for IC50: read-out: Mek-Erk µM; for pIC50: read-out: Mek-Erk
Chain of Recombinant human MEK 1 (MAPKK) / recombinant human ERK2 (MAPK) (Mek-Erk) (P28482 2-360): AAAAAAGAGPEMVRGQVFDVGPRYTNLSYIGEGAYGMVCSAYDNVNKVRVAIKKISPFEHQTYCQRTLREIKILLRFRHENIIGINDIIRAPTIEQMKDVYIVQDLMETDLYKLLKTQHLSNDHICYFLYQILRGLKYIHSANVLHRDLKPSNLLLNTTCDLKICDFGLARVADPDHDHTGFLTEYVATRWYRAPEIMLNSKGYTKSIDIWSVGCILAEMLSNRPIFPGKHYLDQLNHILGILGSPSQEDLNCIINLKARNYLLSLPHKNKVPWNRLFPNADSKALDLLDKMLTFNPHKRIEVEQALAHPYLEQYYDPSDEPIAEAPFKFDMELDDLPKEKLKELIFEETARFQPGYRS
Chain of Recombinant human MEK 1 (MAPKK) / recombinant human ERK2 (MAPK) (Mek-Erk) (Q02750 whole entry): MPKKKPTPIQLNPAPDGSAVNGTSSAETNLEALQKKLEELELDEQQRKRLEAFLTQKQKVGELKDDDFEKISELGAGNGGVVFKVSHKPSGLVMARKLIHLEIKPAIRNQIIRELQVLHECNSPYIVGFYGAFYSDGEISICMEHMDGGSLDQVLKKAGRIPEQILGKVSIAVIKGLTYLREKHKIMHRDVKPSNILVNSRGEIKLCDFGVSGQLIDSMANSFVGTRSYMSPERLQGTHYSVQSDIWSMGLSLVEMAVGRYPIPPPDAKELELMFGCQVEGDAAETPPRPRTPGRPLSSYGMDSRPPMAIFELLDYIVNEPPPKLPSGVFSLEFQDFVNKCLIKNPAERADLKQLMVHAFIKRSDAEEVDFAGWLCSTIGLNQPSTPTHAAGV
Protocol: To evaluate inhibitors of the MAP (mitogen activated protein) kinase a two component coupled standard pharmacological test procedure, which measures phosphorylation of a serine/threonine residue in an appropriate sequence in the substrate in the presence and absence of a putative inhibitor, was used. Recombinant human MEK 1 (MAPKK) was first used to activate recombinant human ERK2 (MAPK) and the activated MAPK (ERK) was incubated with substrate (MBP peptide or MYC peptide) in the presence of ATP, Mg^+2 and radiolabeled ^33P ATP. The phosphorylated peptide was captured on a P 81 phosphocellulose filter (paper filter or embedded in microtiter plate) washed and counted by scintillation methods.
The peptide substrates used in the assay are MBP, peptide substrate ([sequence]), or synthetic Myc substrate, ([sequence]•5 TFA. The recombinant enzymes used were prepared as GST fusion proteins of human ERK 2 and human MEK 1. Inhibitor samples were prepared as 10X stocks in 10% DMSO and an appropriate aliquot was used to deliver either 10 ug/ml for a single point screening dose or 100, 10, 1, and 0.1 uM final concentration for a dose response curve. Final DMSO concentrations were less than or equal to 1%.
The reaction was run as follows in 50 mM Tris kinase buffer, pH 7.4 in a reaction volume of 50 ul. The appropriate volume of kinase buffer and inhibitor sample was added to the tube. Appropriate dilution of enzyme was delivered to give 2-5 ug recombinant MAPK (Erk ) per tube. The inhibitor was incubated with MAPK (Erk) for 30 min at 0° C. Recombinant Mek (MAPKK) ( 0.5-2.5 ug) or fully activated Mek (0.05-0.1 units) was added to activate the Erk and incubated for 30 min at 30° C. Then substrate and gamma ^33P ATP was were added to give a final concentration of 0.5- 1 mM MBPP or 250-500 uM Myc; 0.2-0.5 uCi gamma P 33 ATP/tube; 50 µM ATP final concentration. Samples were incubated at 30°C for 30 minutes and the reaction was stopped by adding 25 µl of ice cold 10 %TCA .After samples were chilled on ice for 30 min, 20 µl of sample was transferred onto P 81 phosphocellulose filter paper or appropriate MTP with embedded P 81 filter. Filter papers or MTP were washed 2 times with a large volume of 1% acetic acid, then 2 times with water. The filters or MTP were briefly air dried before addition of scintillant and samples were counted in the appropriate scintillation counter set up for reading ^33P isotope.
The raw data was captured as cpm. Sample replicates were averaged and corrected for background count. Mean cpm data was tabulated by group and % inhibition by a test compound was calculated as (corrected cpm control- corrected. cpm sample/control) X 100 = % inhibition.

[4] = system: A431; assay: Inhibition of Cancer Cell Growth as Measured by Cell Number (Sulforhodamine B); type: cell-based, Human; settings: Homo sapiens, A-431, 48 h, 48 hours exposure
Protocol: (§1) Human tumor cell lines were plated in 96-well plates (250 µl/well, 1-6 x 10^4 cells/ml) in RPMI 1640 medium, containing 5% FBS (Fetal Bovine Serum). […] After 48 hours exposure to test compounds, cells were fixed with trichloroacetic acid, and stained with Sulforhodamine B. After washing with trichloroacetic acid, bound dye was solubilized in 10 mM Tris base and optical density was determined using plate reader. Under conditions of the assay the optical density is proportional to the number of cells in the well. […] The test procedure is described in details by Philip Skehan et. al, J.Natl. Canc. Inst., 82, 1107-1112 (1990). […] Information about some of the cell lines used in these test procedures is available from the American Type Tissue Collection: Cell Lines and Hybridomas, 1994 Reference Guide, 8th Edition.

[5] = system: MDA-MB-435; assay: as above; type: cell-based, Human; settings: Homo sapiens, MDA-MB-435, 48 h, 48 hours exposure
Protocol: as §1

[6] = system: SK-BR3; assay: as above; type: cell-based, Human; settings: Homo sapiens, SK-BR-3, 48 h, 48 hours exposure
Protocol: as §1

[7] = system: SW620; assay: as above; type: cell-based, Human; settings: Homo sapiens, SW-620, 48 h, 48 hours exposure
Protocol: as §1

[8] = system: 3T3/c-erbb2; assay: as above; type: cell-based; settings: 48 hours exposure
Protocol: as §1

[9] = system: 3T3; assay: as above; type: cell-based; settings: Mus musculus, NIH3T3; 48 hours exposure
Protocol: as §1

[10] = molecular target: T2, epidermal growth factor receptor kinase (EGF-R Kinase, recombinant enzyme; His-tagged cytoplasmic domain of EGFR) (Homo sapiens, UniProt P00533); assay: Inhibition of Epidermal Growth Factor Receptor Kinase (EGF-R) using recombinant enzyme, RR-SRC peptide phosphorylation, 33P-ATP; type: biochemical; settings: for inhibition at 0.5 µM: read-out: %Inh @ 0.5 µM; for pIC50: recombinant enzyme, 90 min at room temperature
T2 construct: EGFR cDNA encoding amino acids 645 - 1186 preceded by Met-Ala-(His)6; Met-Ala-(His)6 (N); made in house; host or cells: Sf9 insect cells, recombinant baculovirus vHcEGFR52
T2 sequence (P00533 669-1210): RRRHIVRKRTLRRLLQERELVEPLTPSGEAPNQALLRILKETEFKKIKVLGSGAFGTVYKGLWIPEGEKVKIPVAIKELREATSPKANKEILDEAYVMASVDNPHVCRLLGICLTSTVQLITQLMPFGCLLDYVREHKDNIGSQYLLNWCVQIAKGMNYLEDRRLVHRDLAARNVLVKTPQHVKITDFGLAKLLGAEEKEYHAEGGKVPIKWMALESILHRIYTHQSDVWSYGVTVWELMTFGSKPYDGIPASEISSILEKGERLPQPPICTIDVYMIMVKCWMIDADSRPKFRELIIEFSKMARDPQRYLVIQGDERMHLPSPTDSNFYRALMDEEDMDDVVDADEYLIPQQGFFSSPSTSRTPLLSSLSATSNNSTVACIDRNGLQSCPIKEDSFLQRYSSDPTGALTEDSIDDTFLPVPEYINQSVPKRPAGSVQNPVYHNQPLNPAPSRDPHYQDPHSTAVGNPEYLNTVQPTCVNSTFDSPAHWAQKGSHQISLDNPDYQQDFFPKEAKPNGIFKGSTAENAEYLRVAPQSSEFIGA
Protocol: Representative test compounds were evaluated for their ability to inhibit the phosphorylation of the tyrosine residue of a peptide substrate catalyzed by the enzyme epidermal growth factor receptor kinase. The peptide substrate (RR-SRC) has the sequence arg-arg-leu-ile-glu-asp-ala-glu-tyr-ala-ala-arg-gly. The enzyme used in this test procedure is the His-tagged cytoplasmic domain of EGFR. A recombinant baculovirus (vHcEGFR52) was constructed containing the EGFR cDNA encoding amino acids 645 - 1186 preceded by Met-Ala-(His)6. Sf9 cells in 100 mm plates were infected at an moi of 10 pfu/cell and cells were harvested 48 h post infection. A cytoplasmic extract was prepared using 1% Triton X-100 and applied to Ni-NTA column. After washing the column with 20 mM imidazole, HcEGFR was eluted with 250 mM imidazole (in 50 mM Na2HPO4, pH 8.0, 300 mM NaCl). Fractions collected were dialyzed against 10 mM HEPES, pH 7.0, 50 mM NaCl, 10% glycerol, lug/mL antipain and leupeptin and 0.1 mM Pefabloc SC. The protein was frozen in dry ice/methanol and stored -70°C.
Test compounds were made into 10 mg/mL stock solutions in 100% dimethylsulfoxide (DMSO). Prior to experiment, stock solutions were diluted to 500 uM with 100% DMSO and then serially diluted to the desired concentration with HEPES buffer (30 mM HEPES pH 7.4).
For the enzyme reaction, 10 uL of each inhibitor (at various concentrations) were added to each well of a 96-well plate. To this was added 3 uL of enzyme (1:10 dilution in 10mM HEPES, pH 7.4 for final cone. of 1:120). This was allowed to sit for 10 min on ice and was followed by the addition of 5 ul peptide (80 uM final cone.), 10ul of 4X Buffer (Table A), 0.25 uL ^33P-ATP and 12 uL H2O. The reaction was allowed to run for 90 min at room temperature and was followed by spotting the entire volume on to precut P81 filter papers. The filter discs were washed 2X with 0.5% phosphoric acid and radioactivity was measured using a liquid scintillation counter.
The inhibition data for representative compounds of the invention are shown below in TABLE 1. […] The % inhibition of the test compound was determined for at least three different concentrations and the IC50 value was evaluated from the dose response curve. […] CPM(control) is in units of counts per minute and was a number expressing the amount of radiolabled ATP (γ-^33P) incorporated into the RR-SRC peptide substrate by the enzyme after 90 minutes at room temperature in the absence of test compound as measured by liquid scintillation counting. The CPM values were corrected for the background counts produced by ATP in the absence of the enzymatic reaction. […]

Structure (SMILES): CCOc1cc2ncc(C#N)c(Nc3ccc4[nH]c(=O)oc(=O)c4c3)c2cc1OCC [Example 109, 4-(2,4-Dioxo-1,4-dihydro-2H-benzo[d][1,3]oxazin-6-ylamino)-6,7-diethoxy-quinoline-3-carbonitrile]
- pIC50 [1]: < 4.32
- pIC50 [2]: 4.62
- IC50 [3]: > 100 µM
- IC50 [4]: > 5 µg/mL
- IC50 [5]: > 5 µg/mL
- IC50 [6]: > 5 µg/mL
- IC50 [7]: 2.92 µg/mL (≈ 6.98 µM)
- IC50 [8]: 4.62 µg/mL (≈ 11 µM)
- IC50 [9]: > 5 µg/mL

Structure (SMILES): CCOc1cc2ncc(C#N)c(Nc3ccc4c(c3)C(=O)OC4)c2cc1OCC [Example 111, 6,7-Diethoxy-4-(3-oxo-1,3-dihydro-isobenzofuran-5-ylamino)-quinoline-3-carbonitrile]
- inhibition at 0.5 µM [10]: 10%
- pIC50 [10]: < 6.00
- pIC50 [1]: < 4.29
- pIC50 [2]: < 4.11
- IC50 [3]: > 100 µM
- IC50 [4]: > 5 µg/mL
- IC50 [5]: 3.4 µg/mL (≈ 8.74 µM)
- IC50 [6]: > 5 µg/mL
- IC50 [7]: 1.56 µg/mL (≈ 4.02 µM)
- IC50 [8]: 3.3 µg/mL (≈ 8.48 µM)
- IC50 [9]: > 5 µg/mL

Structure (SMILES): CCOc1cc2ncc(C#N)c(Nc3ccc4c(c3)S(=O)(=O)C=C4)c2cc1OCC [Example 112, 4-(1,1-Dioxo-1H-benzo[b]thiophen-6-ylamino)-6,7-diethoxy-quinoline-3-carbonitrile]
- pIC50 [1]: < 4.32
- pIC50 [2]: < 4.15
- pIC50 [3]: < 4.00
- IC50 [4]: 0.257 µg/mL (≈ 0.61 µM)
- IC50 [5]: 0.0033 µg/mL (≈ 0.00783 µM)
- IC50 [6]: 0.336 µg/mL (≈ 0.797 µM)
- IC50 [7]: 0.146 µg/mL (≈ 0.346 µM)
- IC50 [8]: 0.251 µg/mL (≈ 0.596 µM)
- IC50 [9]: 0.392 µg/mL (≈ 0.93 µM)

Structure (SMILES): CCOc1cc2ncc(C#N)c(Nc3ccc4cn[nH]c4c3)c2cc1OC [Example 115, 7-Ethoxy-4-(indazol-6-ylamino)-6-methoxy-quinoline-3-carbonitrile]
- inhibition at 0.5 µM [10]: 49%
- pIC50 [10]: < 6.30
- pIC50 [1]: < 4.56
- pIC50 [2]: 5.25 and < 5.56
- pIC50 [3]: 4.60
- IC50 [4]: 0.0368 µg/mL (≈ 0.102 µM)
- IC50 [5]: 0.0359 µg/mL (≈ 0.0999 µM)
- IC50 [6]: 0.022 µg/mL (≈ 0.0612 µM)
- IC50 [7]: 0.0212 µg/mL (≈ 0.059 µM)
- IC50 [8]: 0.0267 µg/mL (≈ 0.0743 µM)
- IC50 [9]: 0.344 µg/mL (≈ 0.957 µM)

Structure (SMILES): CCOc1cc2c(Nc3ccc4cn[nH]c4c3)c(C#N)cnc2cc1OC [Example 126, 6-Ethoxy-4-(1H-indazol-6-ylamino)-7-methoxyquinoline-3-carbonitrile]
- pIC50 [10]: 6.35
- pIC50 [1]: < 4.56
- pIC50 [2]: 5.08 and < 5.56
- pIC50 [3]: < 4.00
- IC50 [4]: 0.786 µg/mL (≈ 2.19 µM)
- IC50 [5]: 2.63 µg/mL (≈ 7.31 µM)
- IC50 [6]: 2.09 µg/mL (≈ 5.83 µM)
- IC50 [7]: 4.31 µg/mL (≈ 12 µM)
- IC50 [8]: 4.8 µg/mL (≈ 13.4 µM)
- IC50 [9]: 3.22 µg/mL (≈ 8.96 µM)

Structure (SMILES): CCOc1cc2ncc(C#N)c(Nc3ccc4c(c3)C(=O)NCC(=O)N4C)c2cc1OCC [Example 127, 6,7-Diethoxy-4-(1-methyl-2,5-dioxo-2,3,4,5-tetrahydro-1H-benzo[e][1,4]diazepin-7-ylamino)-quinoline-3-carbonitrile]
- inhibition at 0.5 µM [10]: 25%
- pIC50 [10]: < 6.00
- pIC50 [1]: < 4.35
- pIC50 [2]: < 4.17
- pIC50 [3]: < 4.00
- IC50 [4]: > 5 µg/mL
- IC50 [5]: > 5 µg/mL
- IC50 [6]: > 5 µg/mL
- IC50 [7]: > 5 µg/mL
- IC50 [8]: > 5 µg/mL
- IC50 [9]: > 5 µg/mL
